{"source": "ChEMBL document CHEMBL3632573", "about": "“Triazine as a promising scaffold for its versatile biological behavior” (Eur J Med Chem, 2015)", "target": "Histone deacetylase", "assay": "Inhibition of HDAC (unknown origin)", "assay_type": "protein assay, Homo sapiens", "data": [{"molecule": "Nc1nc(NCc2ccc(C(=O)Nc3ccccc3N)cc2)nc(NC2CCCC2)n1", "values": [{"measurement": "IC50", "value": "< 0.2", "unit": "µM"}]}]}
